# Experimental data from patent publication US20240374573A1, “IMIDAZOLE CONTAINING COMPOUNDS, DERIVATIVES THEREFORE, AND USES THEREOF” (AglaeaPharma Inc., priority 2023, published 2024).
# Biological target: T1, α2AAR (α2A-adrenergic receptor) (Homo sapiens, UniProt P08913)
# T1 construct: expressed in transfected cells; host or cells: HEK293
# T1 sequence (P08913 1-465): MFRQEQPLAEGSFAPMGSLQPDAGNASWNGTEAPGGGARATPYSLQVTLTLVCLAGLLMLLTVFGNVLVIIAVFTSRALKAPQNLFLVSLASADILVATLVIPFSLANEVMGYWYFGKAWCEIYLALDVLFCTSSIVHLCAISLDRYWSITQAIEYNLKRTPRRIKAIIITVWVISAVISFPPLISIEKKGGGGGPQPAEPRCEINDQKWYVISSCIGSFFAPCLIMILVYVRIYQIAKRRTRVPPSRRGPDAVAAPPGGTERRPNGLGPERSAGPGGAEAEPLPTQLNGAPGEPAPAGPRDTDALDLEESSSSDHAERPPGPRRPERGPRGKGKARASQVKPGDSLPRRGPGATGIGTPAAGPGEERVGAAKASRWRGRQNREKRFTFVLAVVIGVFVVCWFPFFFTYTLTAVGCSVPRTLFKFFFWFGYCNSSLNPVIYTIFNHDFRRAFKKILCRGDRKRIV
# Experiment: α2AAR FLIPR assay (agonist activity)
# Assay type: cell-based
# Conditions: FLIPR, α2AAR cell line hosted in HEK293 cells; read-out: α2A agonist activity (EC50)
# Procedure: This experimental protocol involved cell seeding and a FLIPR assay using the α2AAR (α2A-adrenergic receptor) cell line hosted in HEK293 cells. […] On Day 1, the cell seeding process started with the removal of the culture medium, followed by rinsing the cells with DPBS (21-031-CVC, Corning). […] The cells were detached, resuspended in growth media, and centrifuged at room temperature at 1000 rpm for 5 minutes. After discarding the supernatant, the cell pellet was resuspended in growth media to a concentration of 10× 10^5 cells per mL. This suspension was added to 384-well plates (19-Jul-38, Greiner) at 20 μL per well and incubated overnight at 37° C. in 5% CO2.
# A 250 mM Probenecid solution was prepared in this buffer. The Fluo-4 Direct™ Loading Buffer was made by dissolving Fluo-4 Direct™ crystals (F10471, Invitrogen) in the FLIPR Assay Buffer and adding Probenecid. The buffer was then vortexed and allowed to stand for over 5 minutes, shielded from light. For the FLIPR procedure, testing compounds for agonist activite were serially diluted and transferred to a 384-well compound plate (25-Jan-39, Greiner). The cell plate was then treated with 2× Fluo-4 Direct™ loading buffer and incubated for 50 minutes at 37° C. in a 5% CO2 atmosphere, followed by 10 minutes at room temperature. Subsequently, the FLIPR assay buffer was added to the compound plate, which is then centrifuged.
# The cell plate was analyzed in the FLIPR Tetra+ System for fluorescence signals. For the agonist test, reference compounds were added to the cell plates, and fluorescence was measured. The “Max-Min” calculation began from Read 1 to the maximum allowed. The data were analyzed using Prism software to calculate activation percentage for agonists and inhibition percentage for antagonists. The results were then fitted using specific models to determine EC50 for agonists.
# The experimental protocol utilized various reagents and apparatus, including Penicillin/Streptomycin (100×) (SV30010, Hyclone), Poly-L-lysine hydrobromide (P1399, Sigma), and different types of 384-well plates such as the 384-Well PP 2.0 Microplate (PP-0200, LABCYTE) and 384 well Low Dead Volume Microplate (LP-0200, LABCYTE). The use of specific reference compounds like UK14304 was also integral to the assay.
row,EC50 [nM],SMILES
1,10 to 50,Cc1cccc(C(c2cccc(NC(=O)CCC#N)c2)c2c[nH]cn2)c1C (centres unmarked) [compound 43]
2,50 to 250,CC(=O)Nc1cccc(C(c2c[nH]cn2)c2cccc(C)c2C)c1F (centres unmarked) [compound 50]
3,50 to 250,Cc1cccc(C(c2c[nH]cn2)c2cccc(NS(C)(=O)=O)c2F)c1C (centres unmarked) [compound 51]
4,250 to 1000,CONC(=O)c1cccc(C(c2c[nH]cn2)c2cccc(C(F)(F)F)c2C)c1 (centres unmarked) [compound 52]
5,10 to 50,CONC(=O)c1cccc(C(c2c[nH]cn2)c2cccc(C)c2C)c1F (centres unmarked) [compound 54]
6,50 to 250,Cc1cccc(C(c2cccc(Nc3ccccn3)c2)c2c[nH]cn2)c1C (centres unmarked) [compound 59]
7,10 to 50,CONC(=O)c1cccc(CC(c2c[nH]cn2)c2cccc(C)c2C)c1 (centres unmarked) [compound 61]
8,10 to 50,CSCCC(=O)Nc1cccc(C(c2c[nH]cn2)c2cccc(C)c2C)c1 (centres unmarked) [compound 63]
9,10 to 50,Cc1cccc(C(c2cccc(NC(=O)CCN3CCOCC3)c2)c2c[nH]cn2)c1C (centres unmarked) [compound 70]
10,50 to 250,Cc1cccc(C(Cc2cccc(NS(C)(=O)=O)c2)c2c[nH]cn2)c1C (centres unmarked) [compound 76]
11,50 to 250,Cc1cccc(C(c2cccc(NC(=O)CC3CCNC3)c2)c2c[nH]cn2)c1C (centres unmarked) [compound 79]
12,50 to 250,Cc1cccc(C(c2cccc(C(=O)CCC#N)c2)c2c[nH]cn2)c1C (centres unmarked) [compound 85]
13,10 to 50,Cc1cccc(C(c2cccc(NS(=O)(=O)CC3CCOC3)c2)c2c[nH]cn2)c1C (centres unmarked) [compound 86]
14,50 to 250,Cc1cccc(C(c2cccc(NC(=O)CCCN3CCOCC3)c2)c2c[nH]cn2)c1C (centres unmarked) [compound 88]
15,50 to 250,Cc1cccc(C(c2cccc(NC(=O)CCN3CCCC3)c2)c2c[nH]cn2)c1C (centres unmarked) [compound 89]
16,50 to 250,Cc1cccc(C(c2c[nH]cn2)c2cccc(S(N)(=O)=O)c2O)c1C (centres unmarked) [compound 150]
17,50 to 250,Cc1cccc(C(CN2CCC(NS(C)(=O)=O)CC2)c2c[nH]cn2)c1C (centres unmarked) [compound 168]
18,50 to 250,Cc1cccc(C(c2cccc(NC(=O)C3C4CC5CC(C4)CC3C5)c2)c2c[nH]cn2)c1C (centres unmarked) [compound 170]
19,10 to 50,Cc1cccc(C(c2cccc(NS(=O)(=O)C[C@@H]3CCCO3)c2)c2c[nH]cn2)c1C (some centres unmarked) [compound 172]
20,10 to 50,Cc1cccc(C(c2cccc(NS(=O)(=O)CC3CCCCO3)c2)c2c[nH]cn2)c1C (centres unmarked) [compound 173]
21,10 to 50,Cc1cccc(C(c2cccc(NC(=O)CC3CCCCC3)c2)c2c[nH]cn2)c1C (centres unmarked) [compound 178]
22,50 to 250,Cc1cccc(C(c2cccc(NC3(C)COC3)c2)c2c[nH]cn2)c1C (centres unmarked) [compound 185]
23,50 to 250,Cc1cscc1C(c1cccc(NS(C)(=O)=O)c1)c1c[nH]cn1 (centres unmarked) [compound 403]
24,50 to 250,CONC(=O)c1ccc2ccccc2c1Nc1ccncc1 [compound 601]
25,50 to 250,COCCOCCOCCOCCOCCc1ccc2ccccc2c1Nc1ccncc1 [compound 602]

# Biological target: T2, α2AAR (Homo sapiens, UniProt P08913)
# T2 construct: host or cells: HEK293 (membranes)
# T2 sequence (P08913 1-465): T1 sequence (P08913 1-465)
# Experiment: α2AAR binding assay ([3H]-RX 821002 radioligand)
# Conditions: [3H]-RX 821002 0.5 nM, HEK293 membranes; read-out: α2A affinity (Ki)
# Procedure: The α2AR Binding Assay was conducted using a stable HEK293 cell line, specifically constructed by WuXi AppTec for targeting α2AAR. […] Both the assay and wash buffers consist of 50 mM Tris-HCl at a pH of 7.4 (Tris base, Sigma, T1503-1 KG).
# The procedure initiated with the preparation of test compounds and a reference compound, yohimbine (Sigma, Y3125), through an 8-point 4-fold serial dilution, transferring 1 μL of each to the assay plate. […] After scaling, the plates were agitated at room temperature for one hour. Subsequently, the Unifilter-96 GF/C filter plates were pre-soaked with 0.3% PEI (Sigma, P3143) for at least half an hour. The reaction mixtures were then filtered and washed four times with cold wash buffer using a Perkin Elmer Cell harvester. Post-filtration, the plates were dried at 50° C. for one hour. […] The top of the plates was then sealed with TopSeal-A sealing film. The trapped 3H was quantified using a Perkin Elmer MicroBeta2 Reader. […] Finally, the data were analyzed with Prism 5.0 software, employing the “log (inhibitor) vs. response-Variable slope” model for data fitting. This comprehensive process ensured precise assessment of the binding affinity of compounds to the α2AAR.
row,Ki [nM],SMILES
1,10 to 50,Cc1cccc(C(c2cccc(NC(=O)CCC#N)c2)c2c[nH]cn2)c1C (centres unmarked) [compound 43]
2,50 to 250,CC(=O)Nc1cccc(C(c2c[nH]cn2)c2cccc(C)c2C)c1F (centres unmarked) [compound 50]
3,10 to 50,Cc1cccc(C(c2c[nH]cn2)c2cccc(NS(C)(=O)=O)c2F)c1C (centres unmarked) [compound 51]
4,10 to 50,CONC(=O)c1cccc(C(c2c[nH]cn2)c2cccc(C)c2C)c1F (centres unmarked) [compound 54]
5,10 to 50,CONC(=O)c1cccc(CC(c2c[nH]cn2)c2cccc(C)c2C)c1 (centres unmarked) [compound 61]
6,10 to 50,CSCCC(=O)Nc1cccc(C(c2c[nH]cn2)c2cccc(C)c2C)c1 (centres unmarked) [compound 63]
7,10 to 50,Cc1cccc(C(c2cccc(NC(=O)CCN3CCOCC3)c2)c2c[nH]cn2)c1C (centres unmarked) [compound 70]
8,< 10,Cc1cccc(C(Cc2cccc(NS(C)(=O)=O)c2)c2c[nH]cn2)c1C (centres unmarked) [compound 76]
9,10 to 50,Cc1cccc(C(c2cccc(NC(=O)CC3CCNC3)c2)c2c[nH]cn2)c1C (centres unmarked) [compound 79]
10,10 to 50,Cc1cccc(C(c2cccc(C(=O)CCC#N)c2)c2c[nH]cn2)c1C (centres unmarked) [compound 85]
11,< 10,Cc1cccc(C(c2cccc(NS(=O)(=O)CC3CCOC3)c2)c2c[nH]cn2)c1C (centres unmarked) [compound 86]
12,10 to 50,Cc1cccc(C(c2cccc(NC(=O)CCCN3CCOCC3)c2)c2c[nH]cn2)c1C (centres unmarked) [compound 88]
13,10 to 50,Cc1cccc(C(c2cccc(NC(=O)CCN3CCCC3)c2)c2c[nH]cn2)c1C (centres unmarked) [compound 89]
